In patent US7550507B2, “2-(alpha-hydroxypentyl) benzoate and its preparation and use” (Institute of Materia Medica, Chinese Academy of Medical …, priority 2002, dated 2009):
Values joined by “and” are separate entries in the source; they are usually repeats but may differ in a detail not shown here. Equal entries are not always repeated. Marks after values point to notes of the source that are not given here.

Key:
[1] = tested on: rats of permanent MCAO; test: Infarction area after local cerebral ischemia (permanent MCAO) in rats, TTC staining; format: in vivo, male Wistar rats; details: 24 hours after MCAO; for infarct area (weight percentage of the infarct tissue to the total cerebral tissue), X ± SD: 200 mg/kg p.o. with HCl (pH 1.6) 0.5 ml, 30 min prior to ischemia, control 26.99 ± 3.51
Protocol: Animal: male Wistar rats (250-280 g), from the Animal Center of the Chinese Academy of Medical Sciences.
dl-PHPB was dissolved in double distilled water.
Methods: Middle cerebral artery occlusion(MCAO): the rats were anesthetized by trichloroacetaldehyde monohydrate (350 mg/kg, ip). The left CCA was exposed through a middle neck incision and was carefully dissected free from surrounding nerves. The ICA and ECA were isolated. Then a 4 cm long 0.26 mm diameter nylon suture was inserted through proximal ECA into ICA for a length of […] from the bifurcation. The wounds were sutured and the rats were released. The room temperature was kept 24-25° C. during the test.
Animals were divided into two groups, 1) administration group: dl-PHPB (200 mg/kg) and HCl (pH 1.6) 0.5 ml (to mimic the acidic condition of the human stomach) were administrated per os (p.o) 30 minutes prior to ischemia; 2) Control group: double-distilled water and HCl (pH 1.6) 0.5 ml were administrated per os (p.o) 30 minutes prior to ischemia.
The anaesthetized animals were decapitated 24 hours after MCAO. Each brain were rapidly removed and kept in ice-cold saline (0-4° C.). After 10 minutes, the coronal section was sliced into five pieces after the removal of bulbus olfactus, cerebellum, and low brain stem. Upon cutting, the first cut was at the center point of the connection line of the polus anterior of cerebrum and the optic chiasm, the second cut was at the site of optic chiasm, the third was at the site of infundibulum stalk, and the fourth was between the infundibulum stalk and the caudal pole of posterior lobe. The sliced brain was kept in a 5 ml solution of TTC (4%) and K2HPO4 (1M), shaded and incubated at 37° C. for 30 minutes. During the incubation, slices were turned over every 7 -8 minutes. […] The infarcted tissue was separated from the normal tissue and weighed. The infarction area is calculated from the weight percentage of the infarct tissue to the total cerebral tissue.

[2] = tested on: platelet aggregation induced by ADP; test: Platelet aggregation induced by ADP in PRP of rats after oral administration (Born method); format: in vivo, male Wistar rats; details: ADP 5 μmol/L
Protocol: Animal: male Wistar rats (260-280 g), from the Animal Center of the Chinese Academy of Medical Sciences.
Potassium 2-(1-hydroxypentyl)-benzoate, dl-PHPB),
ADP, obtained from Shanghai Institute of Biochemistry, Acedemia Sinica.
Equipment: Platelet Aggregometer (type: PAT-4A MEGURO-KU, TOKYO, JAPAN.
Groups: Animals were divided into four groups:
1) Control group: double-distilled water (400 mg/kg) was adimistrated per os (p.o) 30 minutes prior blood sampling;
2) Dl-PHPB (400 mg/kg) was administrated per os (p.o) 30 minutes prior to the blood sampling;
3) Dl-PHPB (400 mg/kg) was administrated per os (p.o) 60 minutes prior to the blood sampling;
4) Dl-PHPB (200 mg/kg) was administrated per os (p.o) 30 minutes prior to the blood sampling;
After oral administration of dl-PHPB, blood was drawn from the carotid of rats at the time points of 30 and 60 minutes, respectively. Platelet rich plasma (PRP) and platelet poor plasma (PPP) were prepared upon common procedure. According to the method described by of Born, PRP (200 μl) was put on the Platelet Aggregometer and pre-incubated at 37° C. for 5 minutes and then ADP with the final concentration of 5 μmol/L was added to induce platelet aggregation. The maximum aggregation was measured 5 minutes after the addition of ADP.

[3] = tested on: isolated hearts on rats; test: Cardiac arrhythmia induced by ischemia-reperfusion in isolated rat hearts (Langendorff perfusion); parameters: species or system male Wistar rats; details: for Duration of Arrhythmia: 15 min ischemia, 30 min reperfusion, control 22.5 ± 9.5; for VT Duration: control 8.2 ± 7.9; for VF Incidence: control 33.3; for Spasmic VT Incidence: control 66.7; for VE Incidence: control 83.3; for VT Incidence: control 100
Protocol: Animals: male Wistar rats, 250-300 g, from the Animal Center of the Chinese Academy of Medical Sciences, randomly grouped.
Langendoff perfusion system;
XD-7100 ECG, Shanghai Medical Electronic Devices Factory
(1) remove the rat heart quickly after decapitation and put it into K—H solution at 4° C., fix the aorta to the perfusion system;
(2) perfuse the heart with K—H solution, 6-8 ml/min, 37±0.5° C., under the pressure of about 60 mmH2O;
(3) connect the two copper electrodes to the cardiac apex and the bottom of the right atria and record the cardiogram;
(4) perporate under the left anterior descending branch of the coronary artery with 3/0 line;
(5) perfuse the heart for 10 minutes and record the normal cardiogram;
(6) ligate the left anterior descending branch of the coronary artery to make myocardial ischemia for 15 minutes;
(7) nip the line and resume the perfusion, record the change of cardiogram for 30 minutes (mainly on VF and Spasmic VT);
(8) dissolve the dl-PHPB at pH 1.5 to a desired concentration, add it into K—H solution to do the experiments.

Structure (SMILES): CCCCC(O)c1ccccc1C(=O)[O-].[K+] (racemic) [dl-PHPB, Potassium dl-2-(α-hydroxypentyl) benzoate]
- infarct area, individual animals of treated group ([1]; 200 mg/kg p.o. 30 min prior to ischemia, single rats): 18.79% and 26.01% and 20.24% and 18.24% and 22.74% and 16.84% and 15.93%
- infarct area (weight percentage of the infarct tissue to the total cerebral tissue), X ± SD [1]: 19.83 ± 3.53 %
- infarct area (weight percentage of the infarct tissue to the total cerebral tissue), X ± SD ([1]; listed as dl-PHBP): 19.83±3.53%
- Rate of inhibition ([2]; 200 mg/kg p.o., 30 min): 6.62%
- Rate of inhibition ([2]; 400 mg/kg p.o., 30 min): 19.31%
- Rate of inhibition ([2]; 400 mg/kg p.o., 60 min): 10.21%
- Duration of Arrhythmia ([3]; 10^−4 mol/L in K-H solution): 1.7 ± 0.6 min
- VT Duration ([3]; 10^−4 mol/L): 1.1 ± 0.6 min
- VF Incidence ([3]; 10^−4 mol/L): 0%
- Spasmic VT Incidence ([3]; 10^−4 mol/L): 0* %
- VE Incidence ([3]; 10^−4 mol/L): 42.9%
- VT Incidence ([3]; 10^−4 mol/L): 100%
- Duration of Arrhythmia ([3]; 10^−5 mol/L in K-H solution): 23.3 ± 5.8 min
- VT Duration ([3]; 10^−5 mol/L): 5.0 ± 6.5 min
- VF Incidence ([3]; 10^−5 mol/L): 33.3%
- Spasmic VT Incidence ([3]; 10^−5 mol/L): 50%
- VE Incidence ([3]; 10^−5 mol/L): 66.7%
- VT Incidence ([3]; 10^−5 mol/L): 100%
